Laboratory results taken from patent publication US20100305204A1, “COMPOSITION USEFUL FOR THE PREVENTION OF ADVERSE EFFECT DUE TO THE USE OF PPAR-GAMMA AGONISTS” (SIGMA-TAU INDUSTRIE FARMACEUTICHE RIUNITE S.P.A., priority 2007, published 2010).
“And” between values parts separate entries of the source, which are not always exact repeats. Identical values can stand only once.

How the values were obtained:
[1] = tested on: osteocalcine; assay: Serum levels of osteocalcine in rosiglitazone-treated patients affected by osteoporosis
[2] = tested on: IGF1; assay: Serum levels of IGF1 in rosiglitazone-treated patients affected by osteoporosis
[3] = Body weight (BW) of the patients
[4] = T1 versus T0, a month of wash-out, 6 patients
[5] = after 1-month rosiglitazone wash-out (T1), patients 1-6 individually and mean
[6] = after treatment with rosiglitazone 8 mg/day orally for 12 months (T0), patients 1-6 individually and mean

## CN(CCOc1ccc(CC2SC(=O)NC2=O)cc1)c1ccccn1 (stereo not drawn) [rosiglitazone]
[1]; [4]
  Change of serum osteocalcine after wash-out: lightly incremented even if not significantly
[1]; [5]
  Serum level of osteocalcine, T1: 0.0028 pg/mL and 0.0029 pg/mL and 0.003 pg/mL and 0.0027 pg/mL and 0.0026 pg/mL
[1]; [6]
  Serum level of osteocalcine, T0: 0.0027 pg/mL and 0.003 pg/mL and 0.0031 pg/mL and 0.0023 pg/mL and 0.0022 pg/mL and 0.0026 pg/mL
[2]; [4]
  Change of serum IGF1 after wash-out: lightly incremented even if not significantly
[2]; [5]
  Serum level of IGF1, T1: 310000 pg/mL and 375000 pg/mL and 300000 pg/mL and 380000 pg/mL and 280000 pg/mL and 265000 pg/mL
[2]; [6]
  Serum level of IGF1, T0: 300 ng/ml and 235 ng/ml and 260 ng/ml (2×) and 330 ng/ml and 270 ng/ml
[4]
  Change of Total Body Water after wash-out: didn't demonstrate variations
[5]
  TBW Total Body Water, T1: 50 and 50.2 and 53.5 and 48 and 50.8 and 49.9
[6]
  TBW Total Body Water, T0: 50.1 and 50.3 and 53.6 and 48 and 50.9 and 49.8
[3]; [4]
  Change of body weight (BW) after wash-out: didn't demonstrate variations
[3]; [5]
  BW Body weight, T1: 98.9 and 102 and 109 and 94.6 and 96.8 and 97
[3]; [6]
  BW Body weight, T0: 99 and 102.5 and 108.9 and 94.5 and 97.3 and 97.2
